Measurements published in patent publication US9359196B2, “Antiproliferative compositions comprising curcumin analogs and methods of producing and using same” (The Board of Regents of the University of Oklahoma, priority 2009, dated 2016).
Read-outs that look alike come from different tables or passages of the source.

Key:
Type in all cases: cell-based, human
H441 cells = assay: Transmission electron microscopy of treated H441 cells (autophagy); conditions: 24 hour treatment, 1 and 10 μM
Description: Transmission Electron Microscopy (TEM): TEM was performed after 24 hour treatment with 1 and 10 μM of compound 1 or compound 29 (CLEFMA). The cells were fixed in 0.1M sodium cacodylate buffer containing 4% paraformaldehyde (PFA) and 2% glutaraldehyde for 4 h at room temperature. The samples were post-fixed in 1% osmium tetroxide for 1.5 h and washed with 0.1M sodium cacodylate buffer, followed by dehydration in an ethanol series of 50%, 60%, 75%, 85%, and 95% for 15 minutes each. The cells were washed twice in 100% Ethanol and passed through a series of epon-araldite (6.2 g epon+4.4 g araldite+12.4 g of dodecenyl succinic anhydride+0.8 g N,N-dimethylbenzylamine) solution in ethanol, [Matsko et al., 2005] before embedding the cells in epon-araldite resin. Finally, 100 nm sections were cut using a microtome, and the sections were placed on glow-discharged 300 mesh Copper grids. The ultrasections were stained with Sato's lead (mixture of calcinated lead citrate, lead nitrate, lead acetate and sodium citrate), and observed by a Hitachi H-7600 Transmission Electron Microscope at 2500× (Oklahoma Medical Research Foundation Imaging and core facility, Oklahoma City).

[1] = system: lung adenocarcinoma cell line H441; assay: Cell proliferation (hexosaminidase assay) in lung adenocarcinoma H441 cells, Example 1; conditions: for IC50: Homo sapiens, NCI-H441, 24 h of treatment
Description: Cell Proliferation Studies: In order to assess the anti-proliferative activity of the synthesized compounds, an in vitro cell culture system of lung adenocarcinoma cell line H441 was used. The cell detachment and anti-proliferative activity was measured as a decrease in hexosaminidase enzyme activity associated with remainder of the adhered cells. [Landegren, 1984] […] The concentration versus cell proliferation plots were analyzed by an exponential fit (Table 1). The results were compared with the anti-proliferative activity of compound 1.
Cell Culture and drug treatment: Human lung adenocarcinoma cell line NCI-H441 (ATCC Number: HTB-174) was obtained from the American Type Culture Collection (Manassas, Va.). H441 cells were maintained at 37° C. with 5% CO2 in McCoy's 5A Medium (Invitrogen, Carlsbad, Calif.) supplemented with 5% heat-inactivated fetal bovine serum (FBS). All media contained gentamicin at 50 μg/ml (GIBCO Laboratories, Grand Island, N.Y.). Other cells lines (PANC-1, MiaPaCa-2 and PC-3) were also similarly maintained, except that the cell culture medium was RPMI 1640 instead of McCoy's.
To evaluate the anti-proliferative activity of synthesized bis(2-fluorobenzylidene)-4-piperidone and its derivatives, the cells were seeded in 96-well flat-bottom tissue culture plates at a density of 10×10^3 cells per well. The cells were allowed to attach and grow overnight. The test compounds were solubilized in dimethyl sulfoxide (DMSO), filtered through 0.2 μm nylon filter and added to cells at 1, 10, 25 and 100 μM concentrations in culture medium supplemented with 5% FBS. The DMSO concentration was maintained at 0.1% per well. Control wells received equivalent volume of DMSO without any test compounds. The cells were allowed to remain in the treatment medium for 24, 48 and 72 hours.
Cell Proliferation: The total number of cells after the treatment period was estimated by the hexosaminidase assay. [Landegren, 1984] Briefly, the medium was removed and hexosaminidase substrate solution in citrate buffer pH 5 (7.5 mM), […] (Calbiochem, San Diego, Calif.) was added at 60 μl per well. The plate was incubated at 37° C. in 100% humidity for 30 minutes, before stopping the reaction with 90 μl of 50 mM glycine containing 5 mM of EDTA (pH 10.4). The absorbance was measured at 405 nm. The experiments were conducted in triplicate, and repeated at least twice. The data were analyzed as percent of control, where the control wells were treated with equivalent amounts of DMSO alone, and the analyzed data was presented as average±standard error of mean. The differences among mean values were deemed significant at p<0.05.
For IC50 calculations, a plot between the drug concentration and hexosaminidase activity was generated and the data was fitted either linearly or exponentially. The best fit was used for further processing of data.

Nrf2 = assay: Nuclear extract immunoblot of phospho-Nrf2; conditions: H441 cells, nuclear fraction
Description: Nuclear extract and immunoblotting: Nuclear extract was prepared using a kit from Active Motif (Carlsbad, Calif.) following the manufacturer's instructions. Briefly, H441 cells were allowed to grow for 24 h in 6-well plates before treatment with CLEFMA. After 12 or 24 h, the cells were scraped into ice-cold PBS and centrifuged at 300×g for 5 min to obtain a pellet. The pelleted cells was resuspended in a hypotonic buffer (20 mM HEPES, pH 7.5, 5 mM NaF, 0.1 mM EDTA, and 0.01 mM Sodium molybdate) and allowed to swell for 15 min on ice. The cells were lysed by adding 50 μl 10% Nonidet P-40 and centrifuged for 30 sec to separate the cytoplasmic and nuclear fractions. The nuclear fraction was extracted after 30 min in an ice-cold complete lysis buffer obtained with the kit. The nuclear extract was separated by centrifugation for 10 min at 14,000×g at 4° C. To immunoblot nuclear factor-erythroid 2-related factor 2 (Nrf2), the nuclear protein (10 μg) was separated on a 4/20% SDS-PAGE gel, transferred onto nitrocellulose membrane and probed with rabbit anti-phospho-Nrf2 antibody and HRP-conjugated goat anti-rabbit IgG antibody. The chemiluminescence signal was developed by Pierce SuperSignal West Femto reagent (Thermo Scientific, Rockford, Ill.). Equal protein loading was confirmed by stripping the blot and re-probing it with anti-actin antibody. […]

In the case of O=C(O)C=CC(=O)N1CC(=Cc2ccccc2Cl)C(=O)C(=Cc2ccccc2Cl)C1 [Compound 29, 4-[3,5-Bis-(2-chlorobenzylidene)-4-oxo-piperidin-1-yl]-4-oxo-2-butenoic acid], the “change in cellular architecture (TEM)” value (H441 cells) is reported as “induced a substantial change in cellular architecture”, the “anti-proliferative activity in words, relative to the comparator named” value [1] is reported as “enhanced the potency of antiproliferative action” and the IC50 ([1]; 1-100 μM tested, fitted plot, read-out: IC50 value) is reported as 1000 nM. For the same compound, the IC50 ([1]; read-out: IC50 (grouping relative to compound 1)) was under 30000 nM and the “Nrf2 activation and nuclear translocation” value (Nrf2) was “activated Nrf2 and caused its translocation into the nuclear fraction”.
